According to patent publication US10231954B2, “Neurodegenerative therapies” (LYTIX BIOPHARMA AS, priority 2014, dated 2019):
Where two headings read alike, the source gives them in different places.

How the values were obtained:
JNK1 = JNK1 (Homo sapiens, UniProt P45983); test: Kinase profiling JNK1; type: biochemical; conditions: for remaining activity at 100 µM: read-out: residual kinase activity, JNK1
Description: (§1) Any value less that 25 is considered to be highly significant inhibition.

PDK1 = molecular target: T1, PDK1 (Homo sapiens, UniProt O15530); test: Kinase profiling PDK1; type: biochemical; conditions: for remaining activity at 100 µM: read-out: residual kinase activity, PDK1
T1 sequence (O15530 1-556): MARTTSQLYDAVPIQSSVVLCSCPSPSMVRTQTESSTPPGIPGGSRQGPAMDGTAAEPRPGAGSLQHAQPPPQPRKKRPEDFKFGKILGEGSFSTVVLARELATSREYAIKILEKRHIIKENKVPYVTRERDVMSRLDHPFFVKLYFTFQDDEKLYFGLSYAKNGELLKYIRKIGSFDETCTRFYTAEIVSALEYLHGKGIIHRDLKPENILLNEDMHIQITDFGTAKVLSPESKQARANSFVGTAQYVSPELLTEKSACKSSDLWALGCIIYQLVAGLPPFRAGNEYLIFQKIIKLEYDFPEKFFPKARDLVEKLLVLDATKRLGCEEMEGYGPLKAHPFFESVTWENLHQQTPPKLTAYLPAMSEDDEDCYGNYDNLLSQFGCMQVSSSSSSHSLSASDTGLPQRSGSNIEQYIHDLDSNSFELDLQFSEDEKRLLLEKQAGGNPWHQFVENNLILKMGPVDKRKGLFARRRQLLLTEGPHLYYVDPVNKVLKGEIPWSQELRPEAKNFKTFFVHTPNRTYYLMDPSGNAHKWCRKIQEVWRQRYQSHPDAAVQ
Description: as §1

PKBa = PKBa (Homo sapiens, UniProt P31749); test: Kinase profiling PKBa; type: biochemical; conditions: for remaining activity at 100 µM: read-out: residual kinase activity, PKBa
Description: as §1

S6K1 = S6K1 (Homo sapiens, UniProt P23443); test: Kinase profiling S6K1; type: biochemical; conditions: for remaining activity at 100 µM: read-out: residual kinase activity, S6K1
Description: as §1

MSK1 = MSK1 (Homo sapiens, UniProt O75582); test: Kinase profiling MSK1; type: biochemical; conditions: for remaining activity at 100 µM: read-out: residual kinase activity, MSK1
Description: as §1

CAMK1 = CAMK1 (Homo sapiens, UniProt Q14012); test: Kinase profiling CAMK1; type: biochemical; conditions: for remaining activity at 100 µM: read-out: residual kinase activity, CAMK1
Description: as §1

PLK1 = PLK1 (Homo sapiens, UniProt P53350); test: Kinase profiling PLK1; type: biochemical; conditions: for remaining activity at 100 µM: read-out: residual kinase activity, PLK1
Description: as §1

AMPK (hum) = test: Kinase profiling AMPK (hum); type: biochemical, human
Description: as §1

NEK6 = NEK6 (Homo sapiens, UniProt Q9HC98); test: Kinase profiling NEK6; type: biochemical; conditions: for remaining activity at 100 µM: read-out: residual kinase activity, NEK6
Description: as §1

PIM1 = PIM1 (Homo sapiens, UniProt P11309); test: Kinase profiling PIM1; type: biochemical; conditions: for remaining activity at 100 µM: read-out: residual kinase activity, PIM1
Description: as §1

SRPK1 = SRPK1 (Homo sapiens, UniProt Q96SB4); test: Kinase profiling SRPK1; type: biochemical; conditions: for remaining activity at 100 µM: read-out: residual kinase activity, SRPK1
Description: as §1

HIPK2 = HIPK2 (Homo sapiens, UniProt Q9H2X6); test: Kinase profiling HIPK2; type: biochemical; conditions: for remaining activity at 100 µM: read-out: residual kinase activity, HIPK2
Description: as §1

MLK3 = MLK3 (Homo sapiens, UniProt Q16584); test: Kinase profiling MLK3; type: biochemical; conditions: for remaining activity at 100 µM: read-out: residual kinase activity, MLK3
Description: as §1

TAK1 = molecular target: T2, TAK1 (Homo sapiens, UniProt O43318); test: Kinase profiling TAK1; type: biochemical; conditions: for remaining activity at 100 µM: read-out: residual kinase activity, TAK1
T2 sequence (O43318 1-303 limits assumed): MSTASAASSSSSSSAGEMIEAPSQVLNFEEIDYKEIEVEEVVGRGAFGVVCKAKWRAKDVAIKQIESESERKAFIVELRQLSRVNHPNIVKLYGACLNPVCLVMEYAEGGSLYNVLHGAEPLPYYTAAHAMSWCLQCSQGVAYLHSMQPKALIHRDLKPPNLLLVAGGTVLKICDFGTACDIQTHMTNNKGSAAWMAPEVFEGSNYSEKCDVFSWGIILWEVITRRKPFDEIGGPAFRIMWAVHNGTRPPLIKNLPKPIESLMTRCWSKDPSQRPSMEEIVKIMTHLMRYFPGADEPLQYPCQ
T2 sequence (Q15750 437-504 partner limits assumed): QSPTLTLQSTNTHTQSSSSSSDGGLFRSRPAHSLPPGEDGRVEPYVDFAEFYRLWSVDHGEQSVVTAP
Description: as §1

JAK2 = JAK2 (Homo sapiens, UniProt O60674); test: Kinase profiling JAK2; type: biochemical; conditions: for remaining activity at 100 µM: read-out: residual kinase activity, JAK2
Description: as §1

HER4 = HER4 (Homo sapiens, UniProt Q15303); test: Kinase profiling HER4; type: biochemical; conditions: for remaining activity at 100 µM: read-out: residual kinase activity, HER4
Description: as §1

TrkA = TrkA (Homo sapiens, UniProt P04629); test: Kinase profiling TrkA; type: biochemical; conditions: for remaining activity at 100 µM: read-out: residual kinase activity, TrkA
Description: as §1

[1] = 100 micromolar inhibitor concentration, 100 is no change
[2] = 100 micromolar inhibitor, 100 = no change

PKBa, sequence (P31749 whole entry): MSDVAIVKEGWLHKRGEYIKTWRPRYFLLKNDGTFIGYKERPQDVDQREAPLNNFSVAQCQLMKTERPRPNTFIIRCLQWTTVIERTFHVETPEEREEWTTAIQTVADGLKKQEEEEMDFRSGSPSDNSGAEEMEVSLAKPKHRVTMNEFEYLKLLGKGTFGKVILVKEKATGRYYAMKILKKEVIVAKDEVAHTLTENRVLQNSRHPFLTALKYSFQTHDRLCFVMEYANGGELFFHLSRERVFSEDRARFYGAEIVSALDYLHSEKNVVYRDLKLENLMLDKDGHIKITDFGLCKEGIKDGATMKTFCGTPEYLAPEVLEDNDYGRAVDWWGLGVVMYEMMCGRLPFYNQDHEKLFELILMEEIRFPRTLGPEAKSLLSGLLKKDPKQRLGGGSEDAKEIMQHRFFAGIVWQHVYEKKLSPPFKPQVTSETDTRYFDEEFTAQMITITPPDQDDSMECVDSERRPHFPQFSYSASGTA
PLK1, sequence (P53350 whole entry, species assumed): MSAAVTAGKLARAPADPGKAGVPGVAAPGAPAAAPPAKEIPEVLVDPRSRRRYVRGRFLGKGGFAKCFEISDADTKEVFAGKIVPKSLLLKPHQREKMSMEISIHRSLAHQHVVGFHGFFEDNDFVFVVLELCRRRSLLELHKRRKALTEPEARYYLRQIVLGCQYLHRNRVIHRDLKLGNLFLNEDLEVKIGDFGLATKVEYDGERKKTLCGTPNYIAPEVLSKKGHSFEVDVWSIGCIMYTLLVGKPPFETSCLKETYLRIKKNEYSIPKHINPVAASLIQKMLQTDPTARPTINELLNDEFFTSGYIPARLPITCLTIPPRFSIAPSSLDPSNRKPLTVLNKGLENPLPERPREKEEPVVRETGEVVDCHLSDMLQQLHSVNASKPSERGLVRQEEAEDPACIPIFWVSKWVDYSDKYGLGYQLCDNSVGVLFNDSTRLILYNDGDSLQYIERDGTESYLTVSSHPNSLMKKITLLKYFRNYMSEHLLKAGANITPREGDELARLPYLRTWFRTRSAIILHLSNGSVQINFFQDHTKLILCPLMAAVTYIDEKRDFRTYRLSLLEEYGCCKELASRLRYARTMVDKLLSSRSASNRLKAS
JNK1, sequence (P45983 whole entry, species assumed): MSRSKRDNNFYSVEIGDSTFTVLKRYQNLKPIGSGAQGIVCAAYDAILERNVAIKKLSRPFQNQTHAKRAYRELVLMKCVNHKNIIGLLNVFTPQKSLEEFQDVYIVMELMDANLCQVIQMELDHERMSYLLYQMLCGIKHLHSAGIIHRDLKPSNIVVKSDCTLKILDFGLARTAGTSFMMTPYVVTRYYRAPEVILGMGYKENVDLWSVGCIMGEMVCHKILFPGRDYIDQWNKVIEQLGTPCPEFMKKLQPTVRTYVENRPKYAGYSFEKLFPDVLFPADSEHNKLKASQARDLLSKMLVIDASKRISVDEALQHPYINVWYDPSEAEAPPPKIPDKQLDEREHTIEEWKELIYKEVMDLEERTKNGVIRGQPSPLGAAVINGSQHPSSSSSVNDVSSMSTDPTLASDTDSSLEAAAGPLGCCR
CAMK1, sequence (Q14012 whole entry, species assumed): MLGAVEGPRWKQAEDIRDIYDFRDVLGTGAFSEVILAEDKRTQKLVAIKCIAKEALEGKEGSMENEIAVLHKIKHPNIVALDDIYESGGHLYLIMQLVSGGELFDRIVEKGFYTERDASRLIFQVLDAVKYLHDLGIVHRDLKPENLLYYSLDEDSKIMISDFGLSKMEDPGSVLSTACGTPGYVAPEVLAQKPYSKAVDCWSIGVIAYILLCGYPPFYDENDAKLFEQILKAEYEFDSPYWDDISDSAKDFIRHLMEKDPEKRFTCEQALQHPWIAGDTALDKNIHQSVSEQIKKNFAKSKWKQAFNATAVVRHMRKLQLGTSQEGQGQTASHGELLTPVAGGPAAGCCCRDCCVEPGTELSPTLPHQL
JAK2, sequence (O60674 whole entry, species assumed): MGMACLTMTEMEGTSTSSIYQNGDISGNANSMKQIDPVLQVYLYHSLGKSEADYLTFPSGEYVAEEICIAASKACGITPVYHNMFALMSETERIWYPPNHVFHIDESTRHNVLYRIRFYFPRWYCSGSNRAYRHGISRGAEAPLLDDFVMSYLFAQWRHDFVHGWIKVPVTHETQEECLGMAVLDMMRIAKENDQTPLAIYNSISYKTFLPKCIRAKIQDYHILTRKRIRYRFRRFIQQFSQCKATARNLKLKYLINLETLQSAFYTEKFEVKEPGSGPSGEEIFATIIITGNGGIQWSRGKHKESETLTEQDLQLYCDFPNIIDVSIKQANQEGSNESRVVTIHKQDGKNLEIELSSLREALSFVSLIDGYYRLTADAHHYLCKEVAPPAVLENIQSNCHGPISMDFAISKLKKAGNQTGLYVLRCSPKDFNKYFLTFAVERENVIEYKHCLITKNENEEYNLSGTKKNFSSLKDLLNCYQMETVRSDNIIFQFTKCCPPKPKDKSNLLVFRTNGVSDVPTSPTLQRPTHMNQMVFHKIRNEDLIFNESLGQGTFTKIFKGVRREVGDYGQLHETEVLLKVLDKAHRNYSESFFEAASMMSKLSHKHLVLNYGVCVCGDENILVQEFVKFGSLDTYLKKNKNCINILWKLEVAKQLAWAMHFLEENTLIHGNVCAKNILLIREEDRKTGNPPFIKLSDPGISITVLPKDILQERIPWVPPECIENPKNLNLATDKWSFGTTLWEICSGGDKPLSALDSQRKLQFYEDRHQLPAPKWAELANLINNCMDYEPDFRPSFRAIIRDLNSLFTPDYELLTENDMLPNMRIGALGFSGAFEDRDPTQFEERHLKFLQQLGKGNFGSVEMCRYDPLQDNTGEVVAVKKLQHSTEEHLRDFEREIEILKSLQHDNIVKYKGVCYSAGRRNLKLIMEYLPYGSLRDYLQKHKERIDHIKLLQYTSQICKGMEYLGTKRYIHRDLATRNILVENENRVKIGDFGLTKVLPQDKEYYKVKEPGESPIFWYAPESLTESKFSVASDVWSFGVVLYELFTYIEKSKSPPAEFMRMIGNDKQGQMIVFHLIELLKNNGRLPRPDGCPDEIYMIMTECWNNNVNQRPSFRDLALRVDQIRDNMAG
HER4, sequence (Q15303 26-1308, species assumed): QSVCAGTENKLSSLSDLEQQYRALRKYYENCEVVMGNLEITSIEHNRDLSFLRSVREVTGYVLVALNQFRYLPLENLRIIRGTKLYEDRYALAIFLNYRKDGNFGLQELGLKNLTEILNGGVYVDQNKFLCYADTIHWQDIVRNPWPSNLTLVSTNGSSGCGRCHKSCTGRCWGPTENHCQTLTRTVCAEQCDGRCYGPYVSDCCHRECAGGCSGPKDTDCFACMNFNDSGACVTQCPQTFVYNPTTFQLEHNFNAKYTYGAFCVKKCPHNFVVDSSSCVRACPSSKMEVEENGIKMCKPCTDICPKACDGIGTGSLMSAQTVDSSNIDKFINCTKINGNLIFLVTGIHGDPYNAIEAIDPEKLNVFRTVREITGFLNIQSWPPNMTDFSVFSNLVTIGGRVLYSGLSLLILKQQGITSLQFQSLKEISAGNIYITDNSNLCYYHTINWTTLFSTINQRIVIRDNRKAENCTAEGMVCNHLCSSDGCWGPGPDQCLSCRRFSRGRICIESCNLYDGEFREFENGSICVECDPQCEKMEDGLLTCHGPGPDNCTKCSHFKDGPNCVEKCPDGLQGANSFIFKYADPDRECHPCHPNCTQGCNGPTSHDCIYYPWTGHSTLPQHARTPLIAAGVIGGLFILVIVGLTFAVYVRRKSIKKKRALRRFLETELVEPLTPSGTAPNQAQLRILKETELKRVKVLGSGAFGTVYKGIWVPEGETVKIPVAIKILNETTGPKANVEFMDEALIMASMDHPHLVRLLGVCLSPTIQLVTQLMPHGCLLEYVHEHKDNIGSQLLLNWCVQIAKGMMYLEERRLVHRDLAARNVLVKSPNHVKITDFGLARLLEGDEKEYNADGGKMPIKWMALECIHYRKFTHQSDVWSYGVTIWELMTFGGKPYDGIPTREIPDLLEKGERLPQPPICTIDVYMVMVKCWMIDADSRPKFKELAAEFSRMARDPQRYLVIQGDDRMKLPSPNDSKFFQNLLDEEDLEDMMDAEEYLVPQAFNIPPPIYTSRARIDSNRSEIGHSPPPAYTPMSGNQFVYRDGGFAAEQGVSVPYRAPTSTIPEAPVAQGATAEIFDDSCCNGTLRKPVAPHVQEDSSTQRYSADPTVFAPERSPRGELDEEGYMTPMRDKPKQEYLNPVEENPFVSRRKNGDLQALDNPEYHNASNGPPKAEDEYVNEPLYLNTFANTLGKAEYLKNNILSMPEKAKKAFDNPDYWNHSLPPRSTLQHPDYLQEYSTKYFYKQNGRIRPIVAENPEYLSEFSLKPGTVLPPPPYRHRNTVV
PIM1, sequence (P11309 whole entry, species assumed): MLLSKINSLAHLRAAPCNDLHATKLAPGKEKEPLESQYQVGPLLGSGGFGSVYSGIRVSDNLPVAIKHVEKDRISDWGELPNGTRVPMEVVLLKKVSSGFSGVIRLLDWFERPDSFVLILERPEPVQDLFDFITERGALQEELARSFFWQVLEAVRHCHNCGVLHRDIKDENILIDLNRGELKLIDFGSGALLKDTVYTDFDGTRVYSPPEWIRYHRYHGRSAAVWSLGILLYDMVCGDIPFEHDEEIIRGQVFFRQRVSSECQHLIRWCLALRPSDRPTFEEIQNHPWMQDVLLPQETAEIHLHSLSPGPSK
NEK6, sequence (Q9HC98 whole entry, species assumed): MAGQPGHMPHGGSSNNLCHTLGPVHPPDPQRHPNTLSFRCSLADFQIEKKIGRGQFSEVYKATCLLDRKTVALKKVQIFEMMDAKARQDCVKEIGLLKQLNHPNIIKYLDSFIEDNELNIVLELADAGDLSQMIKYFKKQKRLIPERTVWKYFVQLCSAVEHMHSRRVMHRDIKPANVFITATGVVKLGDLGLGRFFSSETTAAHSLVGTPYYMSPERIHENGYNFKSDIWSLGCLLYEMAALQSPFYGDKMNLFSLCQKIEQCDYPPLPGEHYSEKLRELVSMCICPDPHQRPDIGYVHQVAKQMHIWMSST

Compound | residual kinase activity, JNK1 (JNK1; [1]) | residual kinase activity, PDK1 (PDK1; [1]) | residual kinase activity, PKBa (PKBa; [1]) | residual kinase activity, S6K1 (S6K1; [1]) | residual kinase activity, MSK1 (MSK1; [1]) | residual kinase activity, CAMK1 (CAMK1; [1]) | residual kinase activity, PLK1 (PLK1; [1]) | residual kinase activity, AMPK (hum) (AMPK (hum); [1]) | residual kinase activity, NEK6 (NEK6; [1]) | residual kinase activity, PIM1 (PIM1; [1]) | residual kinase activity, SRPK1 (SRPK1; [1]) | residual kinase activity, HIPK2 (HIPK2; [1]) | residual kinase activity, MLK3 (MLK3; [1]) | residual kinase activity, TAK1 (TAK1; [1]) | residual kinase activity, JAK2 (JAK2; [1]) | residual kinase activity, HER4 (HER4; [1]) | residual kinase activity, TrkA (TrkA; [1]) | further results
O=C(Nc1nc2cc(O)ccc2s1)c1ccccc1 [Compound 03-102] | 83 | 74 | 88 | 42 | 72 | 72 | 83 | 49 | 112 | 14 | 10 | 36 | 15 | 31 | 47 | 45 | 38 | 
COC(=O)c1cccc(C(=O)Nc2nc3ccc(C(F)(F)F)cc3s2)c1 [Compound 03-105, Methyl 3-((6-(trifluoromethyl)benzo[d]thiazol-2-yl)carbamoyl)benzoate] |  |  |  |  |  |  |  | 71 |  |  |  |  |  |  |  |  |  | remaining activity at 100 µM (JNK1): 84%; remaining activity at 100 µM (PDK1): 87%; remaining activity at 100 µM (PKBa): 92%; remaining activity at 100 µM (S6K1): 78%; remaining activity at 100 µM (MSK1): 84%; remaining activity at 100 µM (CAMK1): 92%; remaining activity at 100 µM (PLK1): 101%; remaining activity at 100 µM (NEK6): 90%; remaining activity at 100 µM (PIM1): 72%; remaining activity at 100 µM (SRPK1): 54%; remaining activity at 100 µM (HIPK2): 72%; remaining activity at 100 µM (MLK3): 54%; remaining activity at 100 µM (TAK1): 76%; remaining activity at 100 µM (JAK2): 101%; remaining activity at 100 µM (HER4): 122%; remaining activity at 100 µM (TrkA): 82%
N#Cc1ccc2nc(NC(=O)c3ccccc3)sc2c1 [Compound 03-106] | 84 | 106 | 67 | 78 | 64 | 69 | 103 | 80 | 97 | 32 | 7 | 62 | 56 | 37 | 87 | 82 | 66 | 
COC(=O)c1cccc(C(=O)Nc2nc3cc(OC)ccc3s2)c1 [Compound 03-108] | 93 | 101 | 106 | 95 | 88 | 96 | 96 | 101 | 93 | 95 | 68 | 87 | 76 | 81 | 85 | 99 | 85 | 
COC(=O)c1cccc(C(=O)Nc2nc3ccc(F)cc3s2)c1 [Compound 03-110] | 98 | 123 | 109 | 91 | 77 | 99 | 108 | 69 | 87 | 99 | 55 | 66 | 68 | 68 | 89 | 107 | 111 | 
COc1ccc2sc(NC(=O)c3cccc(C(N)=O)c3)nc2c1 [Compound 03-113] | 86 | 101 | 89 | 79 | 65 | 102 | 105 | 96 | 99 | 50 | 82 | 96 | 73 | 35 | 113 | 103 | 87 | 
COc1ccc2nc(C(=O)Nc3ccccc3)sc2c1 [Compound 13-03] |  |  |  |  |  |  |  |  |  |  |  |  |  |  |  |  |  | residual kinase activity, JNK1 (JNK1; [2]): 88; residual kinase activity, PDK1 (PDK1; [2]): 113; residual kinase activity, PKBa (PKBa; [2]): 106; residual kinase activity, S6K1 (S6K1; [2]): 90; residual kinase activity, MSK1 (MSK1; [2]): 97; residual kinase activity, CAMK1 (CAMK1; [2]): 94; residual kinase activity, PLK1 (PLK1; [2]): 93; residual kinase activity, AMPK (hum) (AMPK (hum); [2]): 99; residual kinase activity, NEK6 (NEK6; [2]): 107; residual kinase activity, PIM1 (PIM1; [2]): 96; residual kinase activity, SRPK1 (SRPK1; [2]): 86; residual kinase activity, HIPK2 (HIPK2; [2]): 96; residual kinase activity, MLK3 (MLK3; [2]): 89; residual kinase activity, TAK1 (TAK1; [2]): 96; residual kinase activity, JAK2 (JAK2; [2]): 93; residual kinase activity, HER4 (HER4; [2]): 130; residual kinase activity, TrkA (TrkA; [2]): 55
CC(=O)Nc1nc2ccc([N+](=O)[O-])cc2s1 [Compound 13-10] |  |  |  |  |  |  |  | 70 |  |  |  |  |  |  |  |  |  | remaining activity at 100 µM (JNK1; [1]): 82%; remaining activity at 100 µM (PDK1; [1]): 93%; remaining activity at 100 µM (PKBa): 101%; remaining activity at 100 µM (S6K1; [1]): 65%; remaining activity at 100 µM (MSK1; [1]): 92%; remaining activity at 100 µM (CAMK1; [1]): 84%; remaining activity at 100 µM (PLK1; [1]): 96%; remaining activity at 100 µM (NEK6; [1]): 92%; remaining activity at 100 µM (PIM1; [1]): 81%; remaining activity at 100 µM (SRPK1; [1]): 62%; remaining activity at 100 µM (HIPK2; [1]): 8%; remaining activity at 100 µM (MLK3; [1]): 54%; remaining activity at 100 µM (TAK1; [1]): 58%; remaining activity at 100 µM (JAK2; [1]): 91%; remaining activity at 100 µM (HER4; [1]): 81%; remaining activity at 100 µM (TrkA; [1]): 98%
